# Laboratory results taken from publication PMC10220285, “Development of an assay pipeline for the discovery of novel small molecule inhibitors of human glutathione peroxidases GPX1 and GPX4” (Redox Biology, 2023).
# Tests used:
# [1] = target: T1, GR (glutathione reductase) (Homo sapiens, UniProt P00390); experiment: GR counter-assay; type: biochemical; conditions: Fig. 9 pan-selenoprotein inhibitors
# T1 construct: made in house
# T1 sequence (P00390 44-522): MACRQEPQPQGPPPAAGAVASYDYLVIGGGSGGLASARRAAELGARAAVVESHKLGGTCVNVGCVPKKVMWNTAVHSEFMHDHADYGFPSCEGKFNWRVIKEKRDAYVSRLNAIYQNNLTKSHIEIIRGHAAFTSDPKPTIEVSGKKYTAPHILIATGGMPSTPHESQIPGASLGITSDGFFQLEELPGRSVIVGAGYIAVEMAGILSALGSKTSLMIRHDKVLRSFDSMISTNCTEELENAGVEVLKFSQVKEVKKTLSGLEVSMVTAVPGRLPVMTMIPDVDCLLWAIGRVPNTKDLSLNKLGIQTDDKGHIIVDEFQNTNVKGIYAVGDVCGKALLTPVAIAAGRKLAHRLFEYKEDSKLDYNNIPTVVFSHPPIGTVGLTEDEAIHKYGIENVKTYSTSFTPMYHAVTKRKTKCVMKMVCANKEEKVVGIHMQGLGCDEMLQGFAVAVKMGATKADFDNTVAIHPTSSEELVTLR
# Experimental: The compound plates were prepared as described previously. Purified recombinant human GPX1, GPX2, GPX4, GR, and TXNRD1 were produced and purified as previously reported [[48], [49], [50]]. As production of GPX2 was not optimized at the onset of screening, only GPX1 and GPX4 underwent library screening, and GPX2 was used as a follow-up.
# Follow-up and orthogonal assays were run in quadruplicate unless otherwise stated. Assay schemes are illustrated in Fig. 1.
# To identify false positive compounds that interfere with the primary assay through inhibition of GR, ‘hits’ from the primary screening were run against a GR counter assay to identify this possible off-target inhibition (Fig. 1C). Briefly, 3 μL enzyme mixture (100 nM GR, 0.01% BSA in TES buffer) was dispensed into columns […] of a 1536-well black medium-binding solid-bottom plates. The no-enzyme control (0.01% BSA in TES buffer) was included in column 1 and 2. Compounds and controls (23 nL) were added to each well with a pin tool (Kalypsys), and the plates were incubated for 30 min before 2 μL of substrate mixture (1 mM GSSG 0.4 mM NADPH in TES buffer) was added to each well and absorbance at 340 nm was measured at t = 0 and t = 20 min using a ViewLux Multimodal detector (PerkinElmer).
# (§1) Percent activity was determined by first calculating delta RFU (decrease in fluorescence between t = 0 and t = 20/30 min in primary GPX, GR counter-screen, and TXNRD1 assays, or increase in fluorescence between t = 0 and t = 20 min in the Monobromobimane GPX endpoint assay), and normalizing enzyme activity using median delta RFU values for DMSO-treated enzyme control, and DMSO-treated no-enzyme controls.
# Compound inhibitory activity in the qHTS assays was determined by plotting dose-response data for each sample and fitting with a four-parameter logistic fit to assess IC50 values, efficacy (maximal response), and AUC (area under the curve), as previously described. Hits were classified by the quality of the concentration-response curves (CRC). Curve classes −1.1 and −1.2 being the highest-confidence actives with complete CRCs and classes −2.1 and −2.2 being lower-confidence actives with incomplete CRCs.
# [2] = target: T2, GPX1 (Homo sapiens, UniProt P07203); experiment: nanoDSF thermal stabilization, GPX1; type: binding
# T2 construct: made in house; host or cells: E. coli
# T2 sequence (P07203 1-203): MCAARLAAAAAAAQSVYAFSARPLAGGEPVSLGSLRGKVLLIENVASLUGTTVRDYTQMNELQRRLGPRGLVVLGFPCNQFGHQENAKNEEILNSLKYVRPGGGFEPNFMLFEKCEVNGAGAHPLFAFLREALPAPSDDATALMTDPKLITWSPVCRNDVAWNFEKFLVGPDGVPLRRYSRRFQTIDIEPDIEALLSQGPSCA
# Experimental: Thermal stabilization of enzyme ± DMSO or ± compound was carried out in a Prometheus NT.48 instrument (NanoTemper Technologies) with an excitation wavelength of 280 nm. Intrinsic fluorescence at 330 nm and 350 nm was monitored while heating. Capillaries were filled with ∼10 μL of a solution of GPX1/4 (1 mg/mL), ± small molecule (100 μM) or DMSO, in TES buffer and placed into the instrument. The capillaries were subjected to a temperature range from 30 to 90 °C at a ramp rate of 2 °C/min. The ratio of the recorded emission intensities (350nm/330 nm) were plotted as a function of temperature. This ratio and first derivatives were calculated using the NanoTemper software and were plotted using GraphPad Prism.
# [3] = target: T2, GPX1; experiment: Monobromobimane orthogonal endpoint assay, GPX1; type: biochemical; conditions: initial tests comparing GR-coupled and mBBr assay formats
# Experimental: As an orthogonal assessment of GPX inhibition, a monobromobimane endpoint assay was used (Fig. 1E). Briefly, 30 μL GPX mixture (0.01% BSA and enzyme [1 nM GPX1 or 25 nM GPX4] in TES buffer) was added to columns 2–24 of 384-well black medium-binding plates (Greiner) using a BioRAPTR FRD. TES buffer was used as a no-enzyme control in column 1. Compounds and controls were added in 11-point dose-response titration and incubated with enzyme for 30 min whereupon 10 μL of 400 μM GSH in TES buffer was added before starting the reaction with the addition of 10 μL 200 μM CHP and the reaction was left at room temperature for 10 min (GPX1) or 15 min (GPX4). Upon GPX activity, GSH was depleted over time, whereupon 500 μM mBBr was added and fluorescence at 394/490 was measured using a Viewlux multimodal detector every 20 s for 20 min.
# as §1
# Monobromobimane (mBBr) is a heterocyclic compound that reacts readily with low molecular weight thiols, like glutathione. […]
Compound,inhibition of GR [1],"GSH Binding (ΔTm) GPx1; shift in nanoDSF melting temperature ([2]; 100 μM small molecule vs DMSO control, first or only inflection point)",thermal stabilization of GPX1 ([2]; nanoDSF),IC50 [3] [µM]
"O=S(=O)(O)CC(S)CS (stereo not shown) [2,3-dimercaptopropanesulfonate]",not GR,–,–,–
CC(=O)OC[C@H]1O[C@@H]([S-])[C@H](OC(C)=O)[C@@H](OC(C)=O)[C@@H]1OC(C)=O.CCP(CC)CC.[Au+] [Auranofin],–,+8.3 °C,significant shifts in the melting temperature of GPX1,5.3
